Assay results taken from patent publication US7993662B2, “Transparent solid oil cosmetics” (Kokyu Alcohol Kogyo Co., Ltd., priority 2005, dated 2011).

What was measured:
Assay type in all cases: physicochemical
[1] = Evaluation of hardness (EZ-Test-20N hardness meter, needle penetration); settings: 25° C.
Method: A sample such as a solid or an oil-based cosmetic was stored in a temperature-controlled room at 25° C. for at least 1 day, and measurement was carried out using an EZ-Test-20N hardness meter (manufactured by Shimadzu Corporation). The needle diameter was 1.0 mmφ, and the maximum value measured for the stress (N) at a needle penetration depth of 10 mm with a test speed of 10 mm/min was defined as the hardness.
Measurement was carried out using an EZ-Test-20N hardness meter (manufactured by Shimadzu Corporation). The needle diameter was 1.0 mmφ, and the maximum value measured for the stress (N) at a needle penetration depth of 10 mm with a test speed of 10 mm/min was defined as the hardness.

[2] = Exudation (45° C. for 2 hours, then 25° C. for 3 hours, visual); set-up: key: A: When the amount of exudation was small and there were no oil droplets; B: when a slight degree of exudation was observed but the exudation went back in the temperature-controlled room at 25° C.; when the amount of exudation was large and the exudation did not go back even in the temperature-controlled room at 25° C
Method: After the sample stored in the 50 mL glass container as described in the above-mentioned sample preparation method was stored in a temperature-controlled room at 45° C. for 2 hours, the amount of exudation on the surface of the sample was visually evaluated. The extent to which the exudation went back when the sample was returned to the temperature-controlled room at 25° C. and stored for 3 hours was also evaluated.

[3] = Miscibility evaluation (visual, 100° C. to 110° C.); settings: result in words
Method: Sample preparation method: Predetermined amounts (mass %) of all components were weighed, dissolved at a temperature of 100° C. to 110° C. as appropriate, stirred until uniform, then cooled to 80° C. to 90° C. while stirring, poured into a preheated 50 mL glass container, transferred to a temperature-controlled room at 45° C., stored for 1 hour while gradually cooling, further transferred to a temperature-controlled room at 25° C., and stored for at least 1 day, thus giving a sample. Evaluation Methods for Various Characteristics (1) Miscibility Evaluation Method
The miscibility at a temperature of 100° C. to 110° C. when preparing the sample was evaluated visually as a degree of difficulty. One that was easily miscible was evaluated as ‘A’, one that was slightly difficulty miscible was evaluated as ‘B’, and one that was difficulty miscible was evaluated as ‘C’.

[4] = […] A200V: 30% with 70% of the listed component
[5] = UNICLEAR 100VG: 30% with 70% of the listed component
[6] = Versamid 930: 30% with 70% of the listed component

Compound	Hardness [1, 5] [N]	Exudation properties [2, 5]	other results
CCCCCCCCCCCCC(CO)CCCCCCCCCC (stereo not shown) [Example 24SP, Decyltetradecanol]			Hardness [1, 4]: 0.05 N; Exudation properties [2, 4]: C
CCCCC(CC)C(=O)OCC(COC(=O)C(CC)CCCC)(COC(=O)C(CC)CCCC)COC(=O)C(CC)CCCC (stereo not shown) [PTO, Pentaerythrityl tetraethylhexanoate]	0.04	B	
CC(C)CCCCCCCCCCCCCCC(=O)OC(C)C [IPIS, Isopropyl isostearate]	0.60	A	
CCCCC(CC)C(=O)OCC(C)(C)COC(=O)C(CC)CCCC (stereo not shown) [NDO, Neopentylglycol diethylhexanoate]	0.90	A	
CCCCCCCCCCCCCCC(CO)CCCCCCCCCCCC (stereo not shown) [Example 28SP, Dodecylhexadecanol]			Hardness [1, 4]: 0.09 N; Exudation properties [2, 4]: C
CC(C)CCCC(C)CCCC(C)CCCCC(C)CCCC(C)CCCC(C)C (stereo not shown) [SQ, Squalane]	0.02	A	
CC(C)CCCCCCCCCCCCCCCOC(=O)CCCCCCCCCCCCCCC(C)C [ISIS, Isostearyl isostearate]	0.05	B	
CCC(COC(=O)CCCCCCCCCCCCCCC(C)C)(COC(=O)CCCCCCCCCCCCCCC(C)C)COC(=O)CCCCCCCCCCCCCCC(C)C [TTI, Trimethylolpropane triisostearate]	0.01	B	Hardness [1, 4]: 0.02 N; Exudation properties [2, 4]: B
CC(C)CCCCCCCCCCCCCCCOC(=O)CC(O)C(=O)OCCCCCCCCCCCCCCCC(C)C (stereo not shown) [DIS, Diisostearyl malate]	0.80	A	Hardness [1, 6]: 0.12 N; Exudation properties [2, 6]: A
CCCCCCCCCCCCCCCCOC(=O)C(CC)CCCC (stereo not shown) [CEH, Cetyl ethylhexanoate]	0.70	A	
Trimethylolpropane triethylhexanoate [TTO]			Hardness [1, 4]: 0.03 N; Exudation properties [2, 4]: B
CCCCC(CC)C(=O)OCC(COC(=O)C(CC)CCCC)OC(=O)C(CC)CCCC (stereo not shown) [TOG, Triethylhexanoin]	0.06	B	
Nc1cc(S(=O)(=O)[O-])cc2cc(S(=O)(=O)[O-])c(N=Nc3ccccc3)c(O)c12.[Na+].[Na+] [Red. No. 227]			miscibility with the base [3]: particularly excellent
CC(C)CCCCCCCCCCCCCCC(=O)OCC(COC(=O)CCCCCCCCCCCCCCC(C)C)OC(=O)CCCCCCCCCCCCCCC(C)C [TISG, Triisostearin]	0.03	B	
CC(C)CCCCCCCCCCCCCCC(=O)OCC(COC(=O)CCCCCCCCCCCCCCC(C)C)(COC(=O)CCCCCCCCCCCCCCC(C)C)COC(=O)CCCCCCCCCCCCCCC(C)C [PTI, Pentaerythrityl tetraisostearate]	0.01	B	

Now from value to compound, other results behind:

Hardness [1, 5] [N]	Exudation properties [2, 5]	Compound	other results
0.33	A	Polyglyceryl-2 diisostearate [PGIS22]	Hardness [1, 6]: 3.00 N; Exudation properties [2, 6]: A
0.50	A	Polyglyceryl-2 triisostearate [PGIS23]	
0.35	A	Polyglyceryl-2 isostearate [PGIS21]	
0.50	A	CC(C)CCCCCCCCCCOC(=O)CCCCCC(C)C [KAK139, Isotridecyl isononanoate]	
